Laboratory results reported in patent US20220288052A1, “COMPOUND FOR COMBINATION TREATMENT” (priority 2019, published 2022).
Read-outs that look alike come from different tables or passages of the source.

Key:
[1] = molecular target: 5-HT transporter (Rattus norvegicus, UniProt P31652); experiment: ^3H-uptake rat, 5-HT transporter; format: biochemical
Source text: (§1) Compound (I) has been characterized as a monoamine reuptake inhibitor, based on the profile in a series of functional assays (Table 2).

[2] = molecular target: 5-HT transporter (Homo sapiens, UniProt P31645); experiment: ^3H-uptake human, 5-HT transporter; format: biochemical
Source text: as §1

[3] = molecular target: NA transporter (Homo sapiens, UniProt P23975); experiment: ^3H-uptake human, NA transporter; format: biochemical
Source text: as §1

[4] = molecular target: DA transporter (Homo sapiens, UniProt Q01959); experiment: ^3H-uptake human, DA transporter; format: biochemical
Source text: as §1

[5] = molecular target: DAT (Homo sapiens, UniProt Q01959); experiment: MDS LeadProfilingScreen, DAT; format: binding
[6] = system: brain levels of dopamine (DA); experiment: In vivo microdialysis, DA; set-up: species or system rat
Procedure: The purpose of the present study was to examine, by in vivo microdialysis technique, the effects after administration of compound (I) on brain levels of serotonin, noradrenalin and dopamine within the ventral hippocampus (Hipp), prefrontal cortex (PFC), striatum (STR) and nucleus accumbens (N.Acc) of anaesthetized rats and mice. Compound (I) represents dual acting serotonin/dopamine reuptake inhibitors and was tested in comparison to citalopram a selective serotonin uptake inhibitor. Compound (I) was tested following subcutaneous injections at dose levels between 0.25-30 mg/kg. […] Pre-treatment with the 5-HT1A autoreceptor antagonist WAY-100635 induced a further minor increase of the compound (I) (0.25 mg/kg) induced increase in the PFC level of 5-HT. […]

[7] = system: NMRI mice; experiment: Mouse marble burying test (mMB); format: in vivo
Procedure: FIG. 13: Marble burying. In the marble-burying test mice exposed to a novel object (marbles) bury them in the sawdust floor covering. Compounds showing anxiolytic-like activity decrease the number of buried marbles at non-sedative doses. […] The number of marbles covered by sawdust was counted at the end of a 60-min session.
(§2) Compound (I) was tested in three widely used behavioural screens for predicting anxiolytic effects in the clinic: the mouse marble burying test (mMB), mouse zero maze (mZM) and mouse stress-induced hyperthermia test (mSIH).

[8] = system: mice; experiment: Mouse zero maze (mZM); format: in vivo; settings: mZero maze, p.o.
Procedure: Mice were treated (peroral administration) for 7 days with either, vehicle, duloxetine (10 mg/kg), and compound I (0.1 mg/kg, 1 mg/kg, and 3 mg/kg) (n=8 in each group).
as §2

[9] = system: NMRI mice; experiment: Mouse stress-induced hyperthermia test (mSIH); format: in vivo
Procedure: FIG. 14: Stress-induced hyperthermia. When mice are confronted with a stress-full event, the body temperature rises.
as §2

[10] = Exposure and tissue distribution after 14 days repeat dosing, rat; format: in vivo; settings: for concentration at 2 h / Kp at 2 h: rat, sc, 2 h post last dose
Procedure: Single time point data is available from two 14 days repeat dose studies in mice and rats dosed to both sexes. The three low doses were performed together as one study and the top dose was performed at another occasion as a satellite study.
Samples were taken 2 h post last dose.
Plasma, brain and liver were taken 2 h post last dose.

[11] = system: plasma protein; experiment: Plasma protein binding by equilibrium dialysis, dog; format: in vitro ADME
Procedure: The plasma protein binding was tested in rat, mouse, dog and human plasma by equilibrium dialysis. The plasma protein binding of this compound is remarkably low (Table 24).

[12] = 5 days p.o. tolerated dose study in female mice (non-GLP); format: in vivo, mouse; settings: p.o. 5 days, 3, 5, 15, 30, 60 mg/kg
[13] = Cardiovascular safety in anaesthetised dogs
Procedure: Data presented are mean±s.e. mean where n=4 for all time points, excluding D2t7 where n=3, D3t7 where n=2, and D4t7 and D4t26 where no data was available. Animals received 1, 3, 10, and 30 mg/kg compound (I) as 4 intravenous infusions (starting at t0, D1t30, D2t30 and D3t30, respectively). Each dose was administered over 5 min, using an infusion pump, and the dose volume for each treatment was 2 ml/kg, with the exception of the fourth dose which was 3 ml/kg.
Data presented are mean±s.e. mean where n=4 for all time points, excluding D4t7 and D4t26 where no data was available. Animals received 1, 3, 10, and 30 mg/kg compound (I) as 4 intravenous infusions (starting at t0, D1t30, D2t30 and D3t30, respectively). Each dose was administered over 5 min, using an infusion pump, and the dose volume for each treatment was 2 ml/kg, with the exception of the fourth dose which was 3 ml/kg.

DA transporter, sequence (Q01959 whole entry): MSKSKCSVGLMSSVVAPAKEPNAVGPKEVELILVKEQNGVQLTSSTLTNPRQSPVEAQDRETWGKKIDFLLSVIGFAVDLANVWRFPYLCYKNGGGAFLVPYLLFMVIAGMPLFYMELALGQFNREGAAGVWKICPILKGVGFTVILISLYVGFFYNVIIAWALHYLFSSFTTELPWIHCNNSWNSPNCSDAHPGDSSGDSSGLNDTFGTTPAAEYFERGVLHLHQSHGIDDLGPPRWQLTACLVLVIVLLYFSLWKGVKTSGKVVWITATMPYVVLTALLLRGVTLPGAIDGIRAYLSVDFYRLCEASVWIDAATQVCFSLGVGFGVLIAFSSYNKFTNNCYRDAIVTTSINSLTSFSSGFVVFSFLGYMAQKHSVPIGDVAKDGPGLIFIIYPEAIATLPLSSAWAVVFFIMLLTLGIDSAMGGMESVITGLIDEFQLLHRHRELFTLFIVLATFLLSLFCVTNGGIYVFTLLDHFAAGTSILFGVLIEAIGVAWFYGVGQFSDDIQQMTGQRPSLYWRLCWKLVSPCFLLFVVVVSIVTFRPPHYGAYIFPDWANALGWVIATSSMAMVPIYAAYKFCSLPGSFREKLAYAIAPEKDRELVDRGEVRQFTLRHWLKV
5-HT transporter (Homo sapiens, UniProt P31645), sequence (P31645 whole entry): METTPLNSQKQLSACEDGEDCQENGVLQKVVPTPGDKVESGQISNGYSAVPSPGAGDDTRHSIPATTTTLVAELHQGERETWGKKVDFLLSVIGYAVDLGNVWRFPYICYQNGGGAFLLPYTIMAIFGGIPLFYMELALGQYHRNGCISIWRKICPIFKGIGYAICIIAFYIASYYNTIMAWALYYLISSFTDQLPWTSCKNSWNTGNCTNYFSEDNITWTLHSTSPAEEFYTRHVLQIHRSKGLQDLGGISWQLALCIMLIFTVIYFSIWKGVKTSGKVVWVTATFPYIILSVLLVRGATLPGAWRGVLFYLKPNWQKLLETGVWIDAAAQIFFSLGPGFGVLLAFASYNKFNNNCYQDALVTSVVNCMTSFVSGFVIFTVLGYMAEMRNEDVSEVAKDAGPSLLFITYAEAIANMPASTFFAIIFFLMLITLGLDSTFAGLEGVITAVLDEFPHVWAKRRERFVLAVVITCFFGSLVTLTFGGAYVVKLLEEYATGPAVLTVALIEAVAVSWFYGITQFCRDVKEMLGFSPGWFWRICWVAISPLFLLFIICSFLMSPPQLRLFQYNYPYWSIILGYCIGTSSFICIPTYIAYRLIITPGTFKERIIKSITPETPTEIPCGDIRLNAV
NA transporter, sequence (P23975 whole entry): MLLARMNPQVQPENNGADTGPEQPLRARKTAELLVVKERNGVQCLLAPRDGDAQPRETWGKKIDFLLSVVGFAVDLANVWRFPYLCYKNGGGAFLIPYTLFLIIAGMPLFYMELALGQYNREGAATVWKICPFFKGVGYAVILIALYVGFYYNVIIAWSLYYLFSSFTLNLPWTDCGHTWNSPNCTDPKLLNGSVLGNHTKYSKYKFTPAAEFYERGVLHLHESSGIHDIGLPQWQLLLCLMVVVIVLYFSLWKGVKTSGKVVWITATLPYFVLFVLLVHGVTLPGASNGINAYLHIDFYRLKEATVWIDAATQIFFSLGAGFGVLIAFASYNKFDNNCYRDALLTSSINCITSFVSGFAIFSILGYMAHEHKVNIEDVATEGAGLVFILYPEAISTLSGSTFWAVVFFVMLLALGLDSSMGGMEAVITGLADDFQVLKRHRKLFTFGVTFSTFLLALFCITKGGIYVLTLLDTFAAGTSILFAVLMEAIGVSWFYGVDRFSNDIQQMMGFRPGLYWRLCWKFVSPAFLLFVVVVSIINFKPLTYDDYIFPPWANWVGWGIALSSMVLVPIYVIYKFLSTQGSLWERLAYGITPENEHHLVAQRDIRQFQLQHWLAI
DAT, sequence (Q01959 whole entry): as the sequence (Q01959 whole entry) above
5-HT transporter (Rattus norvegicus, UniProt P31652), sequence (P31652 whole entry): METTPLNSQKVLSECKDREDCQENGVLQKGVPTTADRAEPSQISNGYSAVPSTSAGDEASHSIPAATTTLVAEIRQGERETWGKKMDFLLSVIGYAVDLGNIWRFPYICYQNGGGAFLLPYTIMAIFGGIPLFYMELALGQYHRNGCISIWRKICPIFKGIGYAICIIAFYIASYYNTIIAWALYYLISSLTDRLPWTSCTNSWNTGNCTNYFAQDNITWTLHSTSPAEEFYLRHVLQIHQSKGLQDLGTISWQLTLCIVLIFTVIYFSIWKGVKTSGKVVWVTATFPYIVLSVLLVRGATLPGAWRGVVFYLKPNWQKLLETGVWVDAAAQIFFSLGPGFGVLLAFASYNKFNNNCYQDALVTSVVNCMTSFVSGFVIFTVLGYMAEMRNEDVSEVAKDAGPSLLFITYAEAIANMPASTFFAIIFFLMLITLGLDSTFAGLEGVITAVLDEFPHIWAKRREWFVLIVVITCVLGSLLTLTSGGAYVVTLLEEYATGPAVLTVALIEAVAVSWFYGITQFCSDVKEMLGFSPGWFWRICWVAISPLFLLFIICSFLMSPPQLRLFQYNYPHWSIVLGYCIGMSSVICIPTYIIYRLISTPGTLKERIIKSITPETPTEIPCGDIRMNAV

Compound `O=c1ccc2ccc(O[C@@H]3C[C@H]4CC[C@@H](C3)N4)cc2o1` [Compound (I), exo-7-(8-aza-bicyclo[3.2.1]oct-3-yloxy)-chromen-2-one] has an IC50 [1] of 0.45 nM, an IC50 [2] of 1.8 nM and a Ki [2] of 2 nM. It also gave a Human transporter ratio ([2]; 5-HT (reference = 1)) of 1, an IC50 [3] of 46 nM and a Ki [3] of 50.1 nM. The Human transporter ratio ([3]; NA versus 5-HT) was 26, the IC50 [4] was 100 nM and the Ki [4] was 100 nM. For the same compound, the Human transporter ratio ([4]; DA versus 5-HT) was 56, the Ki [5] was 155 nM and the inhibition at 10 µM ([5]; DAT, Human, 10 μM) was 97%. For the same compound, the “DA (AUC0-160 min)” value ([6]; Hippocampus, 3 mg/kg s.c., 3 mg/kg) was 142±36%, the “DA (AUC0-160 min)” value ([6]; N.Acc, 10 mg/kg s.c., 10 mg/kg) was 192±42% and the “DA (AUC0-160 min)” value ([6]; N.Acc, 30 mg/kg s.c., 30 mg/kg) was 604±88%. The “DA (AUC0-160 min)” value ([6]; Pre-frontal cortex, 1 mg/kg s.c., 1 mg/kg) was 132±9%, the “DA (AUC0-160 min)” value ([6]; Pre-frontal cortex, 10 mg/kg s.c., 10 mg/kg) was 211±40% and the “DA (AUC0-160 min)” value ([6]; Pre-frontal cortex, WAY100365 0.1 mg/kg + compound (I) 0.25 mg/kg) was 55 ± 2%. The “DA (AUC0-160 min)” value ([6]; Striatum, 3 mg/kg s.c., 3 mg/kg) was 137±21%, the “DA (AUC0-160 min)” value ([6]; Striatum, 10 mg/kg s.c., 10 mg/kg) was 134±43% and the “Kinetic pattern of DA increase in microdialysis (nucleus accumbens)” value ([6]; rats, 30 mg/kg s.c., compared to bupropion 10 mg/kg s.c. and cocaine 25 mg/kg i.p.) was “slower kinetic pattern”. For the same compound, the MED ([7]; Marble burying, p.o., −60 min) was 0.1 mg/kg, the “Number of visible marbles” value ([7]; per oral, NMRI mice, 60-min session) was “dose-dependently (0.1-1.0 mg/kg) increases in the number of visible marbles” and the MED ([8]; acute, −60 min) was greater than 10 mg/kg. The MED ([8]; 7 days OD) was less than 0.3 mg/kg, the “Body temperature in resting conditions” value ([9]; 0.1, 1 and 3 mg/kg per oral, NMRI mice) was “did not change body temperature in resting conditions” and the Stress-induced temperature rise ([9]; 0.1, 1 and 3 mg/kg per oral, NMRI mice, all three doses) was “temperature rise was significantly prevented”. For the same compound, the MED ([9]; mSIH, p.o., −60 min) was 0.3 mg/kg, the concentration at 2 h ([10]; Wistar, brain, Female rats, 5 mg/kg s.c. 14 days, read-out: Brain concentration) was 468 ng/g and the concentration at 2 h ([10]; Wistar, brain, Female rats, 10 mg/kg s.c. 14 days, read-out: Brain concentration) was 1020 ng/g. For the same compound, the concentration at 2 h ([10]; Wistar, brain, Female rats, 15 mg/kg s.c. 14 days, read-out: Brain concentration) was 1580 ng/g, the concentration at 2 h ([10]; Wistar, brain, Female rats, 25 mg/kg s.c. 14 days, read-out: Brain concentration) was 2080 ng/g and the concentration at 2 h ([10]; Wistar, brain, Male rats, 5 mg/kg s.c. 14 days, read-out: Brain concentration) was 519 ng/g. For the same compound, the concentration at 2 h ([10]; Wistar, brain, Male rats, 10 mg/kg s.c. 14 days, read-out: Brain concentration) was 1380 ng/g, the concentration at 2 h ([10]; Wistar, brain, Male rats, 15 mg/kg s.c. 14 days, read-out: Brain concentration) was 1950 ng/g and the concentration at 2 h ([10]; Wistar, brain, Male rats, 25 mg/kg s.c. 14 days, read-out: Brain concentration) was 2580 ng/g. The Kp at 2 h ([10]; Wistar, brain/plasma, Female rats, 5 mg/kg s.c. 14 days, read-out: Brain/plasma ratio) was 7, the Kp at 2 h ([10]; Wistar, brain/plasma, Female rats, 10 mg/kg s.c. 14 days, read-out: Brain/plasma ratio) was 7 and the Kp at 2 h ([10]; Wistar, brain/plasma, Female rats, 15 mg/kg s.c. 14 days, read-out: Brain/plasma ratio) was 6. The Kp at 2 h ([10]; Wistar, brain/plasma, Male rats, 5 mg/kg s.c. 14 days, read-out: Brain/plasma ratio) was 7, the Kp at 2 h ([10]; Wistar, brain/plasma, Male rats, 10 mg/kg s.c. 14 days, read-out: Brain/plasma ratio) was 6 and the Kp at 2 h ([10]; Wistar, brain/plasma, Male rats, 15 mg/kg s.c. 14 days, read-out: Brain/plasma ratio) was 5. For the same compound, the Kp at 2 h ([10]; Wistar, in vivo, Female rats, 5 mg/kg s.c. 14 days, read-out: Liver/plasma ratio) was 5, the Kp at 2 h ([10]; Wistar, in vivo, Female rats, 10 mg/kg s.c. 14 days, read-out: Liver/plasma ratio) was 5 and the Kp at 2 h ([10]; Wistar, in vivo, Female rats, 15 mg/kg s.c. 14 days, read-out: Liver/plasma ratio) was 5. For the same compound, the Kp at 2 h ([10]; Wistar, in vivo, Male rats, 5 mg/kg s.c. 14 days, read-out: Liver/plasma ratio) was 3, the Kp at 2 h ([10]; Wistar, in vivo, Male rats, 10 mg/kg s.c. 14 days, read-out: Liver/plasma ratio) was 3 and the Kp at 2 h ([10]; Wistar, in vivo, Male rats, 15 mg/kg s.c. 14 days, read-out: Liver/plasma ratio) was 2. For the same compound, the concentration at 2 h ([10]; Wistar, liver, Female rats, 5 mg/kg s.c. 14 days, read-out: Liver concentration) was 319 ng/g, the concentration at 2 h ([10]; Wistar, liver, Female rats, 10 mg/kg s.c. 14 days, read-out: Liver concentration) was 738 ng/g and the concentration at 2 h ([10]; Wistar, liver, Female rats, 15 mg/kg s.c. 14 days, read-out: Liver concentration) was 1520 ng/g. The concentration at 2 h ([10]; Wistar, liver, Male rats, 5 mg/kg s.c. 14 days, read-out: Liver concentration) was 259 ng/g, the concentration at 2 h ([10]; Wistar, liver, Male rats, 10 mg/kg s.c. 14 days, read-out: Liver concentration) was 737 ng/g and the concentration at 2 h ([10]; Wistar, liver, Male rats, 15 mg/kg s.c. 14 days, read-out: Liver concentration) was 921 ng/g. For the same compound, the concentration at 2 h ([10]; Wistar, plasma, Female rats, 5 mg/kg s.c. 14 days, read-out: Plasma concentration) was 67 ng/mL, the concentration at 2 h ([10]; Wistar, plasma, Female rats, 10 mg/kg s.c. 14 days, read-out: Plasma concentration) was 149 ng/mL and the concentration at 2 h ([10]; Wistar, plasma, Female rats, 15 mg/kg s.c. 14 days, read-out: Plasma concentration) was 281 ng/mL. It also gave a concentration at 2 h ([10]; Wistar, plasma, Male rats, 5 mg/kg s.c. 14 days, read-out: Plasma concentration) of 77 ng/mL, a concentration at 2 h ([10]; Wistar, plasma, Male rats, 10 mg/kg s.c. 14 days, read-out: Plasma concentration) of 242 ng/mL and a concentration at 2 h ([10]; Wistar, plasma, Male rats, 15 mg/kg s.c. 14 days, read-out: Plasma concentration) of 398 ng/mL. For the same compound, the Kp at 2 h ([10]; brain/plasma, Female rats, 25 mg/kg s.c. 14 days, read-out: Brain/plasma ratio) was 5, the Kp at 2 h ([10]; brain/plasma, Male rats, 25 mg/kg s.c. 14 days, read-out: Brain/plasma ratio) was 5 and the Kp at 2 h ([10]; in vivo, Female rats, 25 mg/kg s.c. 14 days, read-out: Liver/plasma ratio) was 6. The Kp at 2 h ([10]; in vivo, Male rats, 25 mg/kg s.c. 14 days, read-out: Liver/plasma ratio) was 3, the concentration at 2 h ([10]; liver, Female rats, 25 mg/kg s.c. 14 days, read-out: Liver concentration) was 2310 ng/g and the concentration at 2 h ([10]; liver, Male rats, 25 mg/kg s.c. 14 days, read-out: Liver concentration) was 1560 ng/g. For the same compound, the concentration at 2 h ([10]; plasma, Female rats, 25 mg/kg s.c. 14 days, read-out: Plasma concentration) was 412 ng/mL, the concentration at 2 h ([10]; plasma, Male rats, 25 mg/kg s.c. 14 days, read-out: Plasma concentration) was 512 ng/mL and the “Linearity of kinetics after repeat dosing” value ([10]; rats, 5-25 mg/kg s.c. 14 days, 5% glucose) was “slight tendency to supra-linear kinetics”. The fraction unbound at 2710 ng/ml [11] was 0.871, the Activity [12] was “increase in activity (sedation and stereotypic behaviour)” and the Body weight [12] was “no significant changes in bodyweight”. The Heart rate ([13]; 1, 3, 10 and 30 mg/kg i.v.) was “Dose-dependent increases”, the RR interval ([13]; 1, 3, 10 and 30 mg/kg i.v.) was “dose-dependent decreases” and the “Arterial blood pressure (mean, systolic and diastolic)” value ([13]; 1, 3, 10 and 30 mg/kg i.v., apparent decrease following 10 and 30 mg/kg) was “No consistent changes”. For the same compound, the “PR interval and QRS duration” value ([13]; 1, 3, 10 and 30 mg/kg i.v., potential PR shortening at 30 mg/kg) was “relatively unaffected”, the concentration at 5 min ([13]; beagle, dog, plasma, intravenous) was 6500 to 15000 ng/mL and the “QTcF and QTcV intervals” value ([13]; corrected for heart rate/RR interval, also when paced at 90 or 110 bpm) was “clear dose-dependent increase”.
